# Assay results taken from PubChem BioAssay AID652156 (NMMLSC, 2013).
# System: ER-HoxA9 myeloid cells, GFP+/MAC1+ differentiation, flow cytometry
# Test: inducers of GFP+/MAC1+ differentiation in arrested progenitors – ER-HoxA9 cells, flow cytometry, Powder Set01, dose response (AID 652156)
row,EC50,Compound
1,1330 nM,O=C(O)c1cccnc1Nc1ccc(Cl)cc1
2,2090 nM,O=C(CCNC(=O)c1ccc(Cl)cc1)NC1CCCc2ccccc21 (stereo not drawn)
3,930 nM,Cc1ccc(Nc2nc(=O)c3cccnc3s2)c(Br)c1
